Literature values, collected in US7261867B1 (Eastman Kodak Company, priority 2006, dated 2007).

Tests used:
Conditions in all cases: 0.5% concentration in polymethylmethacrylate bone cement
Staphylococcus aureus = test system: Staphylococcus aureus
Pseudomonas aeruginosa = test system: Pseudomonas aeruginosa
Escherichia coli = test system: Escherichia coli

Measured: inhibition of bacterial growth

silver oxide
significantly inhibit: all assays above

[Cl][Ag] [Silver chloride]
significantly inhibit: all assays above

O=S(=O)([O-])[O-].[Ag+].[Ag+] [silver sulphate]
significantly inhibit: all assays above
